Test results reported in patent publication US20060020004A1, “Isoxazolidine compounds for treatment of bacterial infections” (Infinity Pharmaceuticals, Inc., priority 2004, published 2006).
In brackets after ≈: the same amount, converted by molar mass.

Tests used:
[1] = system: Staphylococcus aureus (Smith) ATCC 19636; assay: MIC determination, S. aureus; type: cell-based; settings: S. aureus ATCC 19636, 17 h; for MIC: Staphylococcus aureus, ATCC19636
Procedure: (§1) Susceptibility testing for bacterial cultures is performed according to the National Council for Clinical Laboratory Standards (NCCLS) protocol M100-S12, “Performance Standards for Antimicrobial Susceptibility Testing.” The bacterial strains recommended by NCCLS were obtained from the American Type Culutre Collection (ATCC) (Table) and were maintained on Mueller Hinton (MHA) agar plates plus or minus 3% lysed horse blood (see Table). The bacteria were grown in Cation adjusted Mueller Hinton Broth (CaMHB) for liquid growth and susceptibility testing. S. cerevisiae (yeast) is grown in yeast peptone dextrose (YPD) media.
(§2) All bacterial cultures were grown at 37 degrees Celsius. Fresh colonies of S. aureus and MRSA were inoculated into liquid media and grown overnight and diluted the next day to grow to mid-log (Table 2). E. faecalis and S. pneumonia mid-log cultures were started directly from colony on plates. To attain mid-log growth, cultures were grown to an optical density (OD) at A590 of 0.2-0.8 (see Table 2) and then diluted to proper OD to obtain 5×10^5 cells/mL.
(§3) Diluted bacterial cultures are added to compound plates with compound diluted 2-fold from 100 μg/mL to 0.2 μg/mL final concentration in DMSO. Control antibiotics are also added: vancomycin, linezolid, and penicillin. In 384 well plates, 0.5 μL compound is added followed by addition of 50 μL of culture. DMSO alone is included as a control. Plates incubated at 37 degrees Celsius for 17-24 h.
(§4) Plates with cells mixed with compounds are incubated for 17 h for S. aureus and yeast, 24 h for MRSA, and all Enterococcus and Streptococcus strains. Yeast plates are incubated […].
(§5) Viability is determined by reading plates at A590 to determine optical density of treated and untreated cells and determining growth inhibition relative to controls.

[2] = system: Methicillin resistant S. aureus ATCC 33591; assay: MIC determination, MRSA; type: cell-based, Staphylococcus aureus; settings: MRSA ATCC 33591, 24 h; for MIC: Staphylococcus aureus
Procedure: as §1, §2, §3, §4, §5

[3] = system: Penicillin-res. S. pneumonia ATCC 700671; assay: MIC determination, PRSP; type: cell-based, Streptococcus pneumonia; settings: ATCC 700671, 24 h; for MIC: Streptococcus pneumoniae
Procedure: as §1, §2, §3, §4, §5

Structure (SMILES) | MIC S. aureus [1] | MIC MRSA [2] | MIC PRSP [3] | MIC [1] | MIC [2] | MIC [3]
Cc1ccc(C#Cc2ccc(CN3OC(C(C)O)C(CO)C3CNCCc3c[nH]c4ccccc34)cc2)cc1 (centres unmarked) | ** (the MIC is 5-90 μg/mL) | ** (the MIC is 5-90 μg/mL) | * (the MIC is >90 μg/mL) | – | – | –
CC(O)C1ON(Cc2ccc(-c3cc4ccccc4o3)cc2)C(C(=O)NCCc2c[nH]c3ccccc23)C1CO (centres unmarked) | ** (the MIC is 5-90 μg/mL) | ** (the MIC is 5-90 μg/mL) | ** (the MIC is 5-90 μg/mL) | – | – | –
CC(O)C1ON(Cc2ccc(-c3ccc(Cl)cc3)cc2)C(C(=O)NCCc2c[nH]c3ccccc23)C1CO (centres unmarked) | ** (the MIC is 5-90 μg/mL) | ** (the MIC is 5-90 μg/mL) | ** (the MIC is 5-90 μg/mL) | – | – | –
Cc1ccc(C#Cc2ccc(CN3O[C@@H]([C@@H](C)O)[C@@H](CO)[C@H]3CNCCc3c[nH]c4ccccc34)cc2)cc1 | – | – | – | 5 to 90 µg/mL (≈ 9.55 to 172 µM) | < 5 µg/mL | –
Cc1ccc(C#Cc2ccc(CN3OC(C(C)O)C(COC(=O)CN(C)C)C3C(=O)NCCc3c[nH]c4ccccc34)cc2)cc1 (centres unmarked) | – | ** (the MIC is 5-90 μg/mL) | ** (the MIC is 5-90 μg/mL) | – | – | –
Cc1ccc(C#Cc2ccc(CN3OC[C@H](CN(C)C)[C@H]3C(=O)NCCc3c[nH]c4ccccc34)cc2)cc1 | – | – | – | 5 to 90 µg/mL (≈ 9.6 to 173 µM) | 5 to 90 µg/mL (≈ 9.6 to 173 µM) | 5 to 90 µg/mL (≈ 9.6 to 173 µM)
CC(O)C1ON(Cc2cccc(-c3ccc(C(C)(C)C)cc3)c2)C(C(=O)NCCc2c[nH]c3ccccc23)C1CO (centres unmarked) | *** (the MIC is less than 5 μg/mL) | *** (the MIC is less than 5 μg/mL) | ** (the MIC is 5-90 μg/mL) | – | – | –
Cc1ccc(C#Cc2ccc(CN3O[C@H]([C@@H](C)O)[C@H](CO)[C@@H]3C(=O)NCCN3CCCC3)cc2)cc1 | – | – | – | > 90 µg/mL | > 90 µg/mL | > 90 µg/mL
Cc1ccc(C#Cc2ccc(CN3OCC(CO)C3C(=O)NCCc3c[nH]c4ccccc34)cc2)cc1 (centres unmarked) [drawing 221] | ** (the MIC is 5-90 μg/mL) | ** (the MIC is 5-90 μg/mL) | ** (the MIC is 5-90 μg/mL) | – | – | –
Cc1ccc(C#Cc2ccc(CN3O[C@@H]([C@@H](C)O)[C@@H](CN(C)C)[C@@H]3C(=O)NCCc3c[nH]c4ccccc34)cc2)cc1.Cl | – | – | – | 5 to 90 µg/mL | 5 to 90 µg/mL | 5 to 90 µg/mL
CC(O)C1ON(Cc2ccc(-c3ccc(C(C)(C)C)cc3)cc2)C(C(=O)NCCc2c[nH]c3ccccc23)C1CO (centres unmarked) | ** (the MIC is 5-90 μg/mL) | * (the MIC is >90 μg/mL) | ** (the MIC is 5-90 μg/mL) | – | – | –
Cc1ccc(C#Cc2ccc(CN3OC(CN)CC3C(=O)NCCc3c[nH]c4ccccc34)cc2)cc1 (centres unmarked) | ** (the MIC is 5-90 μg/mL) | ** (the MIC is 5-90 μg/mL) | ** (the MIC is 5-90 μg/mL) | – | – | –
CC(O)C1ON(Cc2ccc(-c3ccc(Oc4ccccc4)cc3)cc2)C(C(=O)NCCc2c[nH]c3ccccc23)C1CO (centres unmarked) | ** (the MIC is 5-90 μg/mL) | ** (the MIC is 5-90 μg/mL) | ** (the MIC is 5-90 μg/mL) | – | – | –
Cc1ccc(C#Cc2ccc(CC3O[C@H]([C@@H](C)O)[C@H](CO)[C@@H]3C(=O)NCCc3nc4ccccc4[nH]3)cc2)cc1 (some centres unmarked) | – | – | – | 5 to 90 µg/mL (≈ 9.3 to 167 µM) | 5 to 90 µg/mL (≈ 9.3 to 167 µM) | 5 to 90 µg/mL (≈ 9.3 to 167 µM)
Cc1ccc(C#Cc2ccc(CN3OC(C(C)O)C(CO)C3C(=O)NCCc3c[nH]c4cc(F)ccc34)cc2)cc1 (centres unmarked) | *** (the MIC is less than 5 μg/mL) | *** (the MIC is less than 5 μg/mL) | ** (the MIC is 5-90 μg/mL) | – | – | –
CC(O)C1ON(Cc2ccc(C#Cc3ccc(C(=O)O)cc3)cc2)C(C(=O)NCCc2c[nH]c3ccccc23)C1CO (centres unmarked) | * (the MIC is >90 μg/mL) | * (the MIC is >90 μg/mL) | * (the MIC is >90 μg/mL) | – | – | –

Structure (SMILES) | MIC S. aureus [1] | MIC MRSA [2] | MIC PRSP [3] | MIC [1] | MIC [2] | MIC [3]
CC(O)C1ON(Cc2cccc(C=Cc3ccccc3)c2)C(C(=O)NCCc2c[nH]c3ccccc23)N1CO (centres unmarked) | ** (the MIC is 5-90 μg/mL) | ** (the MIC is 5-90 μg/mL) | ** (the MIC is 5-90 μg/mL) | – | – | –
CCCCCCN1O[C@@H]([C@H](C)O)[C@@H](CO)[C@H]1C(=O)NCCc1c[nH]c2ccccc12 | * (the MIC is >90 μg/mL) | * (the MIC is >90 μg/mL) | * (the MIC is >90 μg/mL) | – | – | –
CC(O)C1ON(Cc2ccc(Oc3ccccc3)cc2)C(C(=O)NCCc2c[nH]c3ccccc23)C1CO (centres unmarked) | ** (the MIC is 5-90 μg/mL) | ** (the MIC is 5-90 μg/mL) | ** (the MIC is 5-90 μg/mL) | – | – | –
Cc1ccc(C#Cc2ccc(CN3OC(C(C)O)C(CO)C3C(=O)NCCc3c[nH]c4ccccc34)cc2)cc1 (centres unmarked) [drawing 206] | *** (the MIC is less than 5 μg/mL) | *** (the MIC is less than 5 μg/mL) | ** (the MIC is 5-90 μg/mL) | – | – | –
COc1ccc2[nH]cc(CCNC(=O)C3C(CO)C(C(C)O)ON3Cc3ccc(C#Cc4ccc(C)cc4)cc3)c2c1 (centres unmarked) | ** (the MIC is 5-90 μg/mL) | * (the MIC is >90 μg/mL) | ** (the MIC is 5-90 μg/mL) | – | – | –
CC(O)C1ON(Cc2cccc(C=Cc3ccc(Cl)cc3)c2)C(C(=O)NCCc2c[nH]c3ccccc23)C1CO (centres unmarked) | *** (the MIC is less than 5 μg/mL) | *** (the MIC is less than 5 μg/mL) | ** (the MIC is 5-90 μg/mL) | – | – | –
CC(O)C1ON(Cc2ccc(C=Cc3ccccc3)cc2)C(C(=O)NCCc2c[nH]c3ccccc23)C1CO (centres unmarked) [drawing 216] | *** (the MIC is less than 5 μg/mL) | *** (the MIC is less than 5 μg/mL) | ** (the MIC is 5-90 μg/mL) | – | – | –
Cc1ccc(C#Cc2ccc(CN3OC4CNCC4C3C(=O)NCCc3c[nH]c4ccccc34)cc2)cc1.Cl (centres unmarked) | – | – | – | 5 to 90 µg/mL | 5 to 90 µg/mL | –
Cc1ccc(C#Cc2ccc(CN3OCC(CO)C3C(=O)NCCc3c[nH]c4ccccc34)cc2)cc1 (centres unmarked) [drawing 212] | – | *** (the MIC is less than 5 μg/mL) | ** (the MIC is 5-90 μg/mL) | – | – | –
CCCCCCCCCCCCN1O[C@@H]([C@H](C)O)[C@@H](CO)[C@H]1C(=O)NCCc1c[nH]c2ccccc12 | – | – | – | < 5 µg/mL | < 5 µg/mL | –
CC(O)C1ON(Cc2cccc(-c3ccc(Cl)cc3)c2)C(C(=O)NCCc2c[nH]c3ccccc23)C1CO (centres unmarked) | ** (the MIC is 5-90 μg/mL) | ** (the MIC is 5-90 μg/mL) | ** (the MIC is 5-90 μg/mL) | – | – | –
CC(O)C1ON(CCCCCCCCc2ccccc2)C(C(=O)NCCc2c[nH]c3ccccc23)C1CO (centres unmarked) | – | ** (the MIC is 5-90 μg/mL) | ** (the MIC is 5-90 μg/mL) | – | – | –
CC(O)C1ON(Cc2ccc(C#Cc3cccc(O)c3)cc2)C(C(=O)NCCc2c[nH]c3ccccc23)C1CO (centres unmarked) | ** (the MIC is 5-90 μg/mL) | ** (the MIC is 5-90 μg/mL) | ** (the MIC is 5-90 μg/mL) | – | – | –
Cc1ccc(C#Cc2ccc(CN3OC(CN)CC3C(=O)NCCc3c[nH]c4ccccc34)cc2)cc1.Cl (centres unmarked) | ** (the MIC is 5-90 μg/mL) | ** (the MIC is 5-90 μg/mL) | ** (the MIC is 5-90 μg/mL) | – | – | –
CC(O)C1ON(Cc2ccc(-c3ccccc3)cc2)C(C(=O)NCCc2c[nH]c3ccccc23)C1CO (centres unmarked) | ** (the MIC is 5-90 μg/mL) | ** (the MIC is 5-90 μg/mL) | * (the MIC is >90 μg/mL) | – | – | –
CCCCCCCCN1O[C@@H]([C@H](C)O)[C@@H](CO)[C@H]1C(=O)NCCc1c[nH]c2ccccc12 | – | – | – | 5 to 90 µg/mL (≈ 11.2 to 202 µM) | 5 to 90 µg/mL (≈ 11.2 to 202 µM) | –
